Five compounds from US4278676A, “Heterocyclic compounds” (H. Lundbeck & Co. A/S, priority 1977, dated 1981) can be followed below.

The term ED50 denotes the midpoint of the dose-response relation. What is called LD50 is the dose expected to kill half of the subjects tested.

Where two headings read alike, the source gives them in different places.

For data set [1], the system named is methylphenidate-induced gnawing. Kind of data set: Potentiation of methylphenidate-induced gnawing. As to conditions: Mus musculus, read-out: ED50 (the dose which causes potentiation in 50% of the animals), mice. The data set is classed as in vivo. The text has this:
(a) Potentiation of methylphenidate-induced gnawing (Scheel-Kruger et al.: Muscimol differentially facilitates stereotypy but antagonizes motility induced by dopaminergic drugs. A complex GABA-DOPAMINE interaction. Life Sciences, 1978, Vol. 22, 75-84).

The subject of data set [2] is morphine-induced motility. Kind of data set: Antagonism of morphine-induced motility. To be noted: Mus musculus; mice; read-out: MED (minimum effective dose), morphine-induced motility. The data set is classed as in vivo. The text has this:
(b) Antagonism of morphine-induced motility (Christensen et al.: Muscimol antagonizes morphine hypermotility without potentiation of analgesia. European J. Pharmacol., 1978, 48, 459-462).

Data set [3] concerns isoniazide-induced convulsions. Kind of data set: Antagonism of isoniazide-induced convulsions. The data set is classed as in vivo. As to conditions: Mus musculus, ip; mice, test compound i.p., isoniazide 300 mg/kg s.c.; read-out: MED (minimum effective dose), isoniazide-induced convulsions. Here is the method:
(c) Antagonism of isoniazide-induced convulsions (Modification (mice, two times lower concentration of isoniazide) of Mao et al.: Evidence for an involvement of GABA in the mediation of cerebellar c-GMP decrease and the anticonvulsant action of diazepam. Naunyn-Smiedeberg's Arch. Pharmacol. 1975, 289, 369-378).
Conditions and procedure for isoniazide antagonism test:
Isoniazide 300 mg/kg s.c.
Five mice are used for each dose level. Immediately after administration of test substance, isoniazide 300 mg/kg is injected s.c. This dose of isoniazide induces intermittent tonic clonic seizures within 60 minutes. The calculations are performed as on "on line procedure" on the EDP-terminal.

A short description of the next data set: Acute toxicity (mice). As to conditions: mouse, in vivo.
Data set [4] concerns lumbar dorsal horn interneurones and Renshaw cells. Kind of data set: Microelectrophoretic experiments on central neurones of anaesthetized cats. The data set is classed as in vivo. To be noted: bicuculline methochloride (BMC), cat central neurones. Here is the method:
In order to study the interactions of the compound Ia with the central GABA receptors in vivo, the compound Ia was tested in microelectrophoretic experiments. Experiments were performed on lumbar dorsal horn interneurones and Renshaw cells of cats anaesthetized with pentobarbitone sodium. The approximate potency of the depressant actions of the compound was assessed relative to that of GABA on the basis of electrophoretic currents required to produce equal and submaximal inhibitions of the firing of the central neurones. The inhibitory action of Ia on central neurones was antagonized by the specific GABA antagonist bicuculline methochloride (BMC).

Data set [5] concerns substantia nigra. Kind of data set: Bilateral injections into substantia nigra in rats. The data set is classed as in vivo, rat. The protocol: (a) Bilateral injections. 0.1, 0.5, and 1.0 μg of Ia,HBr have been injected.
Data set [6] deals with substantia nigra. Kind of data set: Unilateral injections into substantia nigra in rats. The data set is classed as in vivo, rat. Here is the method:
(b) Unilateral injections. 0.1 and 0.5 μg of Ia,Hbr have been injected.

The test system of another data set is GABA uptake system. Kind of data set: Interaction with GABA uptake system. The data set is classed as biochemical. The arrangement: dose or concentration left out as unconfirmed.
In data set [7] the target is GABA:2-oxo-glutarate aminotransferase (Homo sapiens, UniProt P80404). As to the kind of experiment: Interaction with GABA metabolizing enzyme (aminotransferase). The data set is classed as biochemical. As to conditions: concentrations of 10^-3 M.
Data set [8] has as its system L-glutamate 1-carboxylase. As to the kind of experiment: Interaction with GABA metabolizing enzyme (carboxylase). As to conditions: concentrations of 10^-3 M. The data set is classed as biochemical.
[9] abbreviates: iv, read-out: Acute Toxicity (Mice) LD50 i.v.
[10] abbreviates: po, read-out: Acute Toxicity (Mice) LD50 p.o.

Sequence of GABA:2-oxo-glutarate aminotransferase (P80404 29-500): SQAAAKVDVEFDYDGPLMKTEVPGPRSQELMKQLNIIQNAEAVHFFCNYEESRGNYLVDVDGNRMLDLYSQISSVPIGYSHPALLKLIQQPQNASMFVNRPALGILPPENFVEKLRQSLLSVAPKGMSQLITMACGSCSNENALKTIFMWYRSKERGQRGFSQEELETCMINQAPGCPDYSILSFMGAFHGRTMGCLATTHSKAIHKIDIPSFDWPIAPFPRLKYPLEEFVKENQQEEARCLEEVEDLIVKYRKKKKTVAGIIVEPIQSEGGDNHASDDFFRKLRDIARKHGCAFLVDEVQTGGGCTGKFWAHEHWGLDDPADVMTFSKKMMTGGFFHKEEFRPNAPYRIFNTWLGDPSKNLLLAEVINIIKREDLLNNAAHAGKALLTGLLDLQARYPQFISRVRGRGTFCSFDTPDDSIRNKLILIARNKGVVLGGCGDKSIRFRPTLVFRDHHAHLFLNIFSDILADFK

`NCc1cc(=O)[nH]o1` [Muscimol,HBr, reference compound]: in [1], the ED50 worked out at 0.7 mg/kg. The minimal effective dose in data set [2] and in data set [3] was 0.6 mg/kg each time.
For `NCc1cc(=O)[nH]o1` [Muscimol, muscimol], the LD50 in the data set “Acute toxicity (mice)” (ip, read-out: Acute Toxicity (Mice) LD50 i.p.) came out at 12 mg/kg; in “Acute toxicity (mice)” (setting [9]), 7 mg/kg; in “Acute toxicity (mice)” (setting [10]), 22 mg/kg.
`NCCCC(=O)O` [GABA, gamma-aminobutyric acid, reference compound]: the “Reversible antagonism by BMC” value in data set [4] is listed as “yes”.
Consider `Oc1noc2c1CCNC2` [Compound Ia,HBr, 3-Hydroxy-4,5,5,7-tetrahydroisoxazolo[5,4-pyridinium bromide], for which the LD50 is 80 mg/kg in “Acute toxicity (mice)” (setting [9]) and > 320 mg/kg in the data set “Acute toxicity (mice)” (setting [10]). Also, the “Behaviour after bilateral injection into substantia nigra” value in the data set with substantia nigra [5] (0.1, 0.5 and 1.0 μg injected) was “pronounced stereotypic behaviour”. Besides, in the data set on substantia nigra [6] (0.1 and 0.5 μg injected), the “Behaviour after unilateral injection into substantia nigra” value is “strong and prolonged contralateral turning”. For the same compound, in [1], the ED50 was determined as 3 mg/kg. For the same compound, the minimal effective dose was 1 mg/kg in data set [2] and 1.3 mg/kg in [3].
For the compound `Oc1noc2c1CCNC2` [Ia, 4,5,6,7-Tetrahydroisoxazolo[5,4-c]pyridin-3-ol zwitterion], the “Reversible antagonism by BMC” value in [4] is “yes”. In the data set on GABA uptake system, the “Interaction with the GABA uptake system” value is recorded as “did not interact”. Also, the “Interaction with GABA:2-oxo-glutarate aminotransferase” value in data set [7] is “did not interact”. Besides, the “Interaction with L-glutamate 1-carboxylase” value in data set [8] is on record as “did not interact”. In addition, the “Potency compared with muscimol, bilateral injection” value in the data set on substantia nigra [5] (substantia nigra) was “weaker than muscimol”. Also, in the data set with substantia nigra [6] (substantia nigra), the “Potency compared with muscimol, unilateral injection” value is recorded as “weaker than muscimol”.
